Measurements published in patent US9758492B2, “IDO inhibitors” (Bristol-Myers Squibb Company, priority 2013, dated 2017).

biological target: IDO (Homo sapiens, UniProt P14902); assay: LLE_IDO_ABS_DR (IDO assay)
Sequence (P14902 whole entry): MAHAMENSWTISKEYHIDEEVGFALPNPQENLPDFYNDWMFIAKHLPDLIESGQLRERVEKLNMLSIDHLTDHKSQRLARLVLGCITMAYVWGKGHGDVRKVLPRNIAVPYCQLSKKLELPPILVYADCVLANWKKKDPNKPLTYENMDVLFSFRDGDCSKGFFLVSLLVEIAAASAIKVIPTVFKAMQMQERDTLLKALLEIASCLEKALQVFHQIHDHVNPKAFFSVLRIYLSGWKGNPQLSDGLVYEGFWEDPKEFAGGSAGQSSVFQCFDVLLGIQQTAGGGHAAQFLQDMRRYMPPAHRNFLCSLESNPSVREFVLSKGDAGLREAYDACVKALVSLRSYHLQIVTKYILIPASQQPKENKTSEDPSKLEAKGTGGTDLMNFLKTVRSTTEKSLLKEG

SMILES	IC50 [nM]
Cc1ccc(NC(=O)Nc2cc(-c3ccccc3-c3nnn[nH]3)ccc2N(CC(C)C)CC2CC2)cc1 [Example 92, 1-(4-((cyclopropylmethyl) (isobutyl)amino)-2′-(1H-tetrazol-5-yl)biphenyl-3-yl)-3-p-tolylurea]	20
Cc1ccc(NC(=O)Nc2cc(-c3ccccc3C(=O)O)ccc2N(CC(C)C)CC2CC2)cc1 [Example 93, 4′-((cyclopropylmethyl) (isobutyl)amino)-3′-(3-p-tolylureido) biphenyl-2-carboxylic acid]	80
Cc1ccc(NC(=O)Nc2cc(-c3ccccc3C(=O)C(C#N)S(C)(=O)=O)ccc2N(CC(C)C)CC(C)C)cc1 (stereo not shown) [Example 96, 1-(2′-(2-cyano-2-(methylsulfonyl)acetyl)-4-(diisobutylamino)biphenyl-3-yl)-3-p-tolylurea]	1180
Cc1ccc(NC(=O)Nc2cc(-c3cccc(C(=O)O)c3)ccc2N(CC(C)C)CC2CCC2)cc1 [Example 97, 4′-((cyclobutylmethyl) (isobutyl)amino)-3′-(3-p-tolylureido)biphenyl-3-carboxylic acid]	4640
Cc1ccc(NC(=O)Nc2cc(-c3ccccc3-c3nnn[nH]3)ccc2N(CC(C)C)CC2CCC2)cc1 [Example 98, 1-(4-((cyclobutylmethyl) (isobutyl)amino)-2′-(1H-tetrazol-5-yl)biphenyl-3-yl)-3-p-tolylurea]	30
Cc1ccc(NC(=O)Nc2cc(-c3cc(F)ccc3C(=O)O)ccc2N(CC(C)C)CC2CCC2)cc1 [Example 99, 4′-((cyclobutylmethyl) (isobutyl)amino)-5-fluoro-3′-(3-p-tolylureido)biphenyl-2-carboxylic acid]	90
Cc1ccc(NC(=O)Nc2cc(-c3ccccc3C(=O)O)ccc2N(CC(C)C)CC2CCC2)cc1 [Example 100, 4′-((cyclobutylmethyl) (isobutyl)amino)-3′-(3-p-tolylureido)biphenyl-2-carboxylic acid]	90
Cc1ccc(NC(=O)Nc2cc(-c3c(C(=O)O)cccc3N(C)C)ccc2N(CC(C)C)CC(C)C)cc1 [Example 101, 4′-(diisobutylamino)-6-(dimethylamino)-3′-(3-p-tolylureido) biphenyl-2-carboxylic acid]	10
CCn1nc(C)c(-c2ccc(N(CC(C)C)CC(C)C)c(NC(=O)Nc3ccc(C)cc3)c2)c1C(=O)O [Example 102, 4-(4-(diisobutylamino)-3-(3-p-tolylureido)phenyl)-1-ethyl-3-methyl-1H-pyrazole-5-carboxylic acid]	210
Cc1ccc(NC(=O)Nc2cc(-c3scnc3C(=O)O)ccc2N(CC(C)C)CC(C)C)cc1 [Example 103, 5-(4-(diisobutylamino)-3-(3-p-tolylureido)phenyl)thiazole-4-carboxylic acid]	1760
Cc1ccc(NC(=O)Nc2cc(-c3ccccc3C(=O)O)ccc2N(C)C2CCC(F)(F)CC2)cc1 [Example 104, 4′-((4,4-difluoro-cyclohexyl) (methyl)amino)-3′-(3-p-tolylureido)biphenyl-2-carboxylic acid]	100
Cc1ccc(NC(=O)Nc2cc(-c3cc(F)ccc3C(=O)O)ccc2N(C)C2CCC(F)(F)CC2)cc1 [Example 105, 4′-((4,4-difluoro-cyclohexyl) (methyl)amino)-5-fluoro-3′-(3-p-tolylureido) biphenyl-2-carboxylic acid]	190
Cc1ccc(NC(=O)Nc2cc(-c3ccccc3-c3nnn[nH]3)ccc2N(C)C2CCC(F)(F)CC2)cc1 [Example 106, 1-(4-((4,4-difluoro-cyclohexyl) (methyl)amino)-2′-(1H-tetrazol-5-yl)biphenyl-3-yl)-3-p-tolylurea]	8.81
CCC1CCCCN1c1ccc(-c2ccccc2C(=O)O)cc1NC(=O)Nc1ccc(C)cc1 (stereo not shown) [Example 107, 4′-(2-ethylpiperidin-1-yl)-3′-(3-p-tolylureido)biphenyl-2-carboxylic acid]	1860
CCN(CC(C)(C)C)c1ccc(-c2ccccc2C(=O)O)cc1NC(=O)Nc1ccccc1F [Example 108, 4′-(ethyl(neopentyl)amino)-3′-(3-(2-fluorophenyl)ureido) biphenyl-2-carboxylic acid]	250
CCC1CCCCN1c1ccc(-c2ccccc2-c2nnn[nH]2)cc1NC(=O)Nc1ccccc1F (stereo not shown) [Example 109, 1-(4-(2-ethylpiperidin-1-yl)-2′-(1H-tetrazol-5-yl)biphenyl-3-yl)-3-(2-fluorophenyl)urea]	410
CCN(CC(C)(C)C)c1ccc(-c2ccccc2-c2nnn[nH]2)cc1NC(=O)Nc1ccc(C)cc1 [Example 110, 1-(4-(ethyl(neopentyl)amino)-2′-(1H-tetrazol-5-yl)biphenyl-3-yl)-3-p-tolylurea]	40
CCN(CC(C)(C)C)c1ccc(-c2ccccc2C(=O)O)cc1NC(=O)Nc1ccc(C)cc1 [Example 111, 4′-(ethyl(neopentyl)amino)-3′-(3-p-tolylureido)biphenyl-2-carboxylic acid]	210
CCN(CC(C)(C)C)c1ccc(-c2ccccc2-c2nnn[nH]2)cc1NC(=O)Nc1ccccc1F [Example 112, 1-(4-(ethyl(neopentyl)amino)-2′-(1H-tetrazol-5-yl)biphenyl-3-yl)-3-(2-fluorophenyl)urea]	30

SMILES	IC50 [nM]
CCN(CC(C)(C)C)c1ccc(-c2cc(F)ccc2C(=O)O)cc1NC(=O)Nc1ccc(C)cc1 [Example 113, 4′-(ethyl(neopentyl)amino)-5-fluoro-3′-(3-p-tolylureido)biphenyl-2-carboxylic acid]	400
CCC1CCCCN1c1ccc(-c2ccccc2-c2nnn[nH]2)cc1NC(=O)Nc1ccc(C)cc1 (stereo not shown) [Example 114, 1-(4-(2-ethylpiperidin-1-yl)-2′-(1H-tetrazol-5-yl)biphenyl-3-yl)-3-p-tolylurea]	160
CCN(CC(C)(C)C)c1ccc(-c2cc(F)ccc2C(=O)O)cc1NC(=O)Nc1ccccc1F [Example 115, 4′-(ethyl(neopentyl)amino)-5-fluoro-3′-(3-(2-fluorophenyl)ureido) biphenyl-2-carboxylic acid]	350
CCC1CCCCN1c1ccc(-c2ccccc2C(=O)O)cc1NC(=O)Nc1ccccc1F (stereo not shown) [Example 116, 4′-(2-ethylpiperidin-1-yl)-3′-(3-(2-fluorophenyl)ureido) biphenyl-2-carboxylic acid]	2340
COc1ccc(-c2ccc(N(CC(C)C)CC(C)C)c(NC(=O)Nc3ccc(C)cc3)c2)c(-c2nnn[nH]2)c1 [Example 117, 1-(4-(diisobutylamino)-4′-methoxy-2′-(1H-tetrazol-5-yl)biphenyl-3-yl)-3-p-tolylurea]	10
Cc1ccc(NC(=O)Nc2cc(-c3ccccc3-c3nnn[nH]3)ccc2N(CC(C)C)C2CCCCC2)cc1 [Example 118, 1-(4-(cyclohexyl(isobutyl)amino)-2′-(1H-tetrazol-5-yl)biphenyl-3-yl)-3-p-tolylurea]	4.76
Cc1ccc(NC(=O)Nc2cc(-c3ccccc3C(=O)O)ccc2N(CC(C)C)C2CCCCC2)cc1 [Example 119, 4′-(cyclohexyl (isobutyl)amino)-3′-(3-p-tolylureido)biphenyl-2-carboxylic acid]	5.19
Cc1ccc(NC(=O)Nc2cc(-c3ccc(Cl)cc3C(=O)O)ccc2N(CC(C)C)C2CCCCC2)cc1 [Example 120, 4-chloro-4′-(cyclohexyl(isobutyl)amino)-3′-(3-p-tolylureido)biphenyl-2-carboxylic acid]	30
CC(C)CN(c1ccc(-c2ccccc2-c2nnn[nH]2)cc1NC(=O)Nc1ccccc1F)C1CCCCC1 [Example 121, 1-(4-(cyclohexyl(isobutyl)amino)-2′-(1H-tetrazol-5-yl)biphenyl-3-yl)-3-(2-fluorophenyl)urea]	2.59
CC(C)CN(c1ccc(-c2ccccc2C(=O)O)cc1NC(=O)Nc1ccccc1F)C1CCCCC1 [Example 122, 4′-(cyclohexyl(isobutyl)amino)-3′-(3-(2-fluorophenyl)ureido) biphenyl-2-carboxylic acid]	3.47
CC(C)CN(c1ccc(-c2ccc(Cl)cc2C(=O)O)cc1NC(=O)Nc1ccccc1F)C1CCCCC1 [Example 123, 4-chloro-4′-(cyclohexyl(isobutyl)amino)-3′-(3-(2-fluorophenyl)ureido) biphenyl-2-carboxylic acid]	20
Cc1ccc(NC(=O)Nc2cc(-c3cc(F)ccc3C(=O)O)ccc2N(CC(C)C)C2CCCCC2)cc1 [Example 124, 4′-(cyclohexyl(isobutyl)amino)-5-fluoro-3′-(3-p-tolylureido)biphenyl-2-carboxylic acid]	5.18
CC(C)CN(c1ccc(-c2cc(F)ccc2C(=O)O)cc1NC(=O)Nc1ccccc1F)C1CCCCC1 [Example 125, 4′-(cyclohexyl(isobutyl)amino)-5-fluoro-3′-(3-(2-fluorophenyl)ureido) biphenyl-2-carboxylic acid]	5.92
COc1ccc(C(=O)O)c(-c2ccc(N(CC(C)C)CC(C)C)c(NC(=O)Nc3ccc(C)cc3)c2)c1 [Example 128, 4′-(diisobutylamino)-5-methoxy-3′-(3-p-tolylureido)biphenyl-2-carboxylic acid]	390
Cc1ccc(NC(=O)Nc2cc(-c3ccccc3-c3nnn[nH]3)ccc2N(CCC2CC2)CC(C)C)cc1 [Example 129, 1-(4-((2-cyclopropylethyl) (isobutyl)amino)-2′-(1H-tetrazol-5-yl)biphenyl-3-yl)-3-p-tolylurea]	9.53
Cc1ccc(NC(=O)Nc2cc(-c3cc(F)ccc3C(=O)O)ccc2N(CCC2CC2)CC(C)C)cc1 [Example 130, 4′-((2-cyclopropylethyl) (isobutyl)amino)-5-fluoro-3′-(3-p-tolylureido) biphenyl-2-carboxylic acid]	40
Cc1ccc(NC(=O)Nc2cc(-c3sccc3C(=O)O)ccc2N(CCC2CC2)CC(C)C)cc1 [Example 131, 2-(4-((2-cyclopropylethyl) (isobutyl)amino)-3-(3-p-tolylureido)phenyl) thiophene-3-carboxylic acid]	50
Cc1ccc(NC(=O)Nc2cc(-c3ccccc3C(=O)O)ccc2N(CCC2CC2)CC(C)C)cc1 [Example 132, 4′-((2-cyclopropylethyl) (isobutyl)amino)-3′-(3-p-tolylureido) biphenyl-2-carboxylic acid]	50
